Experimental data published in ChEMBL document CHEMBL4311958, “Targeting multiple G-quadruplex-forming DNA sequences: Design, biophysical and biological evaluations of indolo-naphthyridine scaffold derivatives” (Eur J Med Chem, 2019).
The source made the active and inactive calls. The rule behind the calls is not given here.

Legend:
dsDNA = assay: Stabilization of 5'-DABCYL labeled double stranded DNA (unknown origin) assessed as change in melting temperature at 5 uM preincubated for 5 mins and measured after 5 mins by FRET assay; type: nucleic-acid assay
Quadruplex DNA [1] = assay: Stabilization of 5'-DABCYL/3'-FAM labeled KRAS G-quadruplex oligonucleotide (unknown origin) assessed as change in melting temperature at 5 uM preincubated for 5 mins and measured after 5 mins by FRET assay; type: nucleic-acid assay
Quadruplex DNA [2] = assay: Stabilization of 5'-DABCYL/3'-FAM labeled cMYC G-quadruplex oligonucleotide (unknown origin) assessed as change in melting temperature at 5 uM preincubated for 5 mins and measured after 5 mins by FRET assay; type: nucleic-acid assay
Quadruplex DNA [3] = assay: Stabilization of 5'-DABCYL/3'-FAM labeled BCL2 G-quadruplex oligonucleotide (unknown origin) assessed as change in melting temperature at 5 uM preincubated for 5 mins and measured after 5 mins by FRET assay; type: nucleic-acid assay
Quadruplex DNA [4] = assay: Stabilization of 5'-DABCYL/3'-FAM labeled HTS G-quadruplex oligonucleotide (unknown origin) assessed as change in melting temperature at 5 uM preincubated for 5 mins and measured after 5 mins by FRET assay; type: nucleic-acid assay
Quadruplex DNA [5] = assay: Stabilization of 5'-DABCYL/3'-FAM labeled cKIT1 G-quadruplex oligonucleotide (unknown origin) assessed as change in melting temperature at 5 uM preincubated for 5 mins and measured after 5 mins by FRET assay; type: nucleic-acid assay
Quadruplex DNA [6] = assay: Binding affinity to 5'-DABCYL/3'-FAM labeled cKIT1 G-quadruplex oligonucleotide (unknown origin) assessed as conformational change at test compound to DNA ratio of 4:1 measured for 10 mins by circular dichroism analysis; type: nucleic-acid assay
Quadruplex DNA [7] = assay: Binding affinity to 5'-DABCYL/3'-FAM labeled cKIT1 G-quadruplex oligonucleotide (unknown origin) assessed as melting temperature at test compound to DNA ratio of 4:1 measured for 10 mins by circular dichroism analysis; type: nucleic-acid assay
Quadruplex DNA [8] = assay: Binding affinity to 5'-biotin-TEG labeled cKIT1 G-quadruplex oligonucleotide (unknown origin) by SPR analysis; type: nucleic-acid assay
Quadruplex DNA [9] = assay: Binding affinity to 5'-cy5 labeled cKIT1 G-quadruplex oligonucleotide (unknown origin) by microscale thermophoresis analysis; type: nucleic-acid assay
HT-29 = assay: Cytotoxicity against human HT-29 cells assessed as cell viability at 20 uM incubated for 48 hrs by trypan blue assay relative to control; type: functional; details: HT-29, 48 h, read-out: Activity
A2780 = assay: Cytotoxicity against human A2780 cells assessed as cell viability at 20 uM incubated for 48 hrs by trypan blue assay relative to control; type: functional; details: A2780, 48 h, read-out: Activity
A549 = assay: Cytotoxicity against human A549 cells assessed as cell viability at 20 uM incubated for 48 hrs by trypan blue assay relative to control; type: functional; details: A549, 48 h, read-out: Activity
Quadruplex DNA [10] = assay: Competitive binding affinity to 5'-DABCYL/3'-FAM labeled cKIT1 G-quadruplex oligonucleotide (unknown origin) at 5 uM preincubated for 5 mins and measured after 5 mins in presence of ds DNA by FRET assay; type: nucleic-acid assay

COc1ccc2c(c1OC)c(=O)n1c3ccccc3c3cc(C(=O)N4CCN(CCO)CC4)nc2c31
deltaTm (dsDNA): inactive
deltaTm (Quadruplex DNA [1]): inactive
ΔTm (Quadruplex DNA [2]): 0.8 °C
ΔTm (Quadruplex DNA [3]): 2.3 °C
ΔTm (Quadruplex DNA [4]): 0.6 °C
deltaTm (Quadruplex DNA [5]): inactive

COc1ccc2c(c1OC)c(=O)n1c3ccccc3c3cc(C(=O)N4CCN(Cc5ccccc5)CC4)nc2c31
deltaTm (dsDNA): inactive
deltaTm (Quadruplex DNA [1]): inactive
deltaTm (Quadruplex DNA [2]): inactive
deltaTm (Quadruplex DNA [3]): inactive
ΔTm (Quadruplex DNA [4]): 0.5 °C
deltaTm (Quadruplex DNA [5]): inactive

C=C(C)Cc1c(OCC(=O)NCC2CCCN2CC)ccc2c1c1ccnc3c4ccccc4c(=O)n2c13 (centres undefined)
deltaTm (dsDNA): inactive
deltaTm (Quadruplex DNA [1]): inactive
ΔTm (Quadruplex DNA [2]): 3.4 °C
ΔTm (Quadruplex DNA [3]): 0 °C
ΔTm (Quadruplex DNA [4]): 1.7 °C
ΔTm (Quadruplex DNA [5]): 1.6 °C

COc1ccc2c(c1OC)c(=O)n1c3ccc(OCC(=O)NCCCN4CCOCC4)cc3c3ccnc2c31
ΔTm (dsDNA): 0.1 °C
ΔTm (Quadruplex DNA [1]): 0.8 °C
ΔTm (Quadruplex DNA [2]): 4.9 °C
ΔTm (Quadruplex DNA [3]): 3.4 °C
ΔTm (Quadruplex DNA [4]): 4.5 °C
ΔTm (Quadruplex DNA [5]): 6.3 °C
Activity (Quadruplex DNA [6]): Active
Tm (Quadruplex DNA [7]): 59.9 °C
Kd (Quadruplex DNA [8]): 510 nM
Kd (Quadruplex DNA [9]): 300 nM
viability at 20 µM (HT-29): 85%
viability at 20 µM (A2780): 94%
viability at 20 µM (A549): 69%
Activity (Quadruplex DNA [10]): inactive

CCN1CCN(C(=O)c2cc3c4ccccc4n4c(=O)c5ccccc5c(n2)c34)CC1
ΔTm (dsDNA): 0.6 °C
deltaTm (Quadruplex DNA [1]): inactive
ΔTm (Quadruplex DNA [2]): 1.2 °C
ΔTm (Quadruplex DNA [3]): 2.3 °C
ΔTm (Quadruplex DNA [4]): 1.5 °C
deltaTm (Quadruplex DNA [5]): inactive

CN(C)Cc1c(O)ccc2c1c1ccnc3c4ccccc4c(=O)n2c13
ΔTm (dsDNA): 0.1 °C
deltaTm (Quadruplex DNA [1]): inactive
ΔTm (Quadruplex DNA [2]): 3.8 °C
ΔTm (Quadruplex DNA [3]): 1.1 °C
ΔTm (Quadruplex DNA [4]): 3.3 °C
ΔTm (Quadruplex DNA [5]): 5 °C
